The values that follow come from BindingDB's records for doi:10.1021/cb400200h (University of Oxford, 2013).

Chain of Peptidoglycan D,D-transpeptidase FtsI (A6VB91 whole entry): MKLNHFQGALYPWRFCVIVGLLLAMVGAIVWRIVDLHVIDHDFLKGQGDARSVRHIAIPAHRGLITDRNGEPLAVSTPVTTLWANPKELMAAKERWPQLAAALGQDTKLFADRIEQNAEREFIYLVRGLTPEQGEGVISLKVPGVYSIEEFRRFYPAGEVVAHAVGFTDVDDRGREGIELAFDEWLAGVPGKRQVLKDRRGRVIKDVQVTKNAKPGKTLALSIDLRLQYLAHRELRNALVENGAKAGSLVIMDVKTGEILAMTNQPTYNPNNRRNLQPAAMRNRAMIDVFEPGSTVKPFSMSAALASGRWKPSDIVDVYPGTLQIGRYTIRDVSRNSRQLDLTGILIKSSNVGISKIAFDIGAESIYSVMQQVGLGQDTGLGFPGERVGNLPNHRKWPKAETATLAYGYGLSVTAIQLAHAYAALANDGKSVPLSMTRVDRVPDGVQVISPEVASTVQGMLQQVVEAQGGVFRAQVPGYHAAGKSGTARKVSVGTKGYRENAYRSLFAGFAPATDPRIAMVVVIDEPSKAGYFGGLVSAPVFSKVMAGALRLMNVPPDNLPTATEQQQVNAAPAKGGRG

For the experiment, the target named is Peptidoglycan D,D-transpeptidase FtsI (Pseudomonas aeruginosa (strain PA7), UniProt A6VB91). The experiment in a line: IC50 Assay. Particulars: pH 7.2; 25 °C. The procedure:
An appropriate amount of enzyme (4uM) was pre-incubated with the (5R)- or 5(S)-penicilloic acid in the assay buffer (50mM HEPES-NaOH buffer (pH 7.2) supplemented with 0.01% Triton-100) at room temperature for 10 min. Nitrocefin (100uM) was added to initiate the assay. The IC50 values were determined using the software package Graph Prism 5.01.
The term IC50 denotes the concentration at which inhibition is half-maximal. The low end stands for inhibition by little substance, the high end for a need for much substance. The compound `CCN1CCN(C(=O)N[C@@H](C(=O)N[C@@H]2C(=O)N3[C@@H]2SC(C)(C)[C@@H]3C(=O)O)c2ccccc2)C(=O)C1=O` came in with an IC50 of 0.166 µM. This counts as sub-micromolar.

Compound `CCN1CCN(C(=O)N[C@@H](C(=O)N[C@H](C(=O)O)[C@@H]2N[C@@H](C(=O)O)C(C)(C)S2)C2C=CC=CC2)C(=O)C1=O` (stereo partly drawn) [(5R)-PA] gave an IC50 of 196 µM.

The compound `CCN1CCN(C(=O)N[C@@H](C(=O)N[C@H](C(=O)O)[C@H]2N[C@@H](C(=O)O)C(C)(C)S2)C2C=CC=CC2)C(=O)C1=O` (stereo partly drawn) [(5S)-PA] displayed an IC50 of 126 µM. Compared with the last compound, the IC50 is about 1.6-fold lower.
